Data: patent publication EP0306649A1, “3,5-Dihydroxycarboxylic acids and their derivatives, processes for their preparation, their use as medicaments, pharmaceutic preparations and intermediate products” (HOECHST AKTIENGESELLSCHAFT, priority 1987, dated 1989)
Where two headings read alike, the source gives them in different places.

Experiments:
[1] = human trial; cited from earlier work
[2] = rat; cited from earlier work
Cholesterin-Biosynthese = test: Inhibition of cholesterol biosynthesis in cell culture by 14C precursor incorporation into cholesterol; type: cell-based; details: HEP G2-Zellen monolayers in lipoprotein-free medium; 1 h preincubation, then 3 h with 14C-Natriumacetat; potency relative to Mevinolin tested in the same way
From the text: 2) Prüfung auf Cholesterin-Biosynthese-Hemmung in Zellkulturen durch ¹⁴-Präkursoreinbau in Cholesterin.
Monolayers von HEP G2-Zellen in lipoproteinfreiem Nährmedium wurden mit entsprechenden Konzentrationen der Prüfsubstanzen 1 Stunde vorinkubiert; nach Zugabe des ¹⁴C-markierten Präkursors ¹⁴C-Natriumacetat wurde die Inkubation für 3 Stunden fortgesetzt. Danach wurde ein Teil der Zellen alkalisch verseift bei vorheriger Zugabe eines internen Standards von ³H-Cholesterin. Die Lipide der verseiften Zellen wurden mit Chloroform-Methanol extrahiert. Dieses Lipidgemisch wurde nach Zusatz von Träger-Cholesterin präparativ dünnschichtchromatographisch getrennt, die Cholesterin-Bande nach dem Sichtbarmachen mit Jod-Dämpfen isoliert und die aus dem ¹⁴C-Präkursor gebildete Menge ¹⁴C-Cholesterins szintigraphisch bestimmt. In einem aliquoten Teil der Zellen wurde Zellprotein bestimmt, sodaß die in der Zeiteinheit/mg Zellprotein aus ¹⁴C-Präkursor gebildete Menge ¹⁴C-Cholesterins berechnet werden kann. Zum Vergleich für die Hemmwirkung eines zugesetzten Prüfpräparates diente die Lösungsmittelkontrolle, sodaß direkt die Hemmung der Cholesterin-Biosynthese bei einer bestimmten molaren Konzentration des Prüfpräparates im Medium angegeben werden kann. […]

| Compound | cholesterinsenkende Wirkung [1] | cholesterinsenkende Wirkung [2] | relative Weinstärke zu Mevinolin (Cholesterin-Biosynthese) [%] |
| --- | --- | --- | --- |
| CC(O)(CC(=O)O)CC(=O)O [3-Hydroxy-3-methyl-glutarsäure] | signifikante cholesterinsenkende Wirkung | signifikante cholesterinsenkende Wirkung |  |
| CC(C)C(C=CC(O)CC(O)CC(=O)[O-])=C(c1ccc(F)cc1)c1ccc(F)cc1.[Na+] (stereo not shown) [Beispiel 11a, 9,9-Di-(4-fluorphenyl)-3,5-dihydroxy-8-isopropyl-6,8-nonadiensäure Natriumsalz] |  |  | 100 |
| CC(C)C(CCC(O)CC(O)CC(=O)[O-])=C(c1ccc(F)cc1)c1ccc(F)cc1.[Na+] (stereo not shown) [Beispiel 11n, 3,5-Dihydroxy-9,9-di-(4-flurophenyl)-8-isopropyl-8-nonensäure-Natriumsalz] |  |  | 30 |
